Data as given in US12259352B2, “Membrane enhanced sensors” (University Of Cincinnati, priority 2018, dated 2025).

Legend:
[1] = cited from earlier work
[2] = Cortisol transport through hydrophobic barrier (track-etch membrane with castor oil) to electrochemical aptamer sensor, FIG. 6B; settings: sensor solution hundreds of micrometers thick; track-etch membrane of 10% porosity filled with castor oil

Row | concentration lag time (time for sensor solution to reach 90% of sample solution concentration) [2] | Structure (SMILES) | Solubility in Water (in words) [1]
1 |  | CCCCCC/C=C\CCCCCCCC(=O)O [Palmitoleic Acid] | Low
2 |  | CCCCC/C=C\C/C=C\C/C=C\C/C=C\CCCC(=O)O [Arachidonic Acid] | Negligible
3 | ~30 min | C[C@]12CCC(=O)C=C1CC[C@@H]1[C@@H]2[C@@H](O)C[C@@]2(C)[C@H]1CC[C@]2(O)C(=O)CO [cortisol] | 
